System: Normal Conscious Rat
Assay: Aquaretic Effects in Normal Conscious Rat (urine volume)
Format: in vivo, rat (Sprague-Dawley, male)
Procedure: Aquaretic Effects in Normal Conscious Rat
Studies were performed with Sprague-Dawley male SPF rats (body weight: 240 to 320 g; 8-week-old). In this experiment, each group consisted of not less than 4 animals and rats were fasted over 16 to 20 hours. The animals were acclimatized in metabolic cages for one hour, then each compound to be tested was dissolved in 100% N,N-dimethylformamide or suspended in 5% gum arabic solution and administered to these animals intravenously (iv.) in a dose of 3 mg/kg or orally (p.o.) in a dose of 30 mg/kg. Immediately after the test compound or vehicle were orally administered, saline (25 ml/kg) was given orally. Spontaneous voided urines were collected for 4 hours after the administration of the compound and the amount of the urine were determined. In this case, the control group consisted of animals to which only 5% gum arabic was orally administered.
In addition, known compounds of Comparative Examples 2 and Comparative Examples 3 and 4 represented by the following formulas were used as control compounds.

Structure (SMILES) | Amount of Urine Volume (3 mg/kg, i.v.) | Amount of Urine Volume (30 mg/kg, p.o.)
O=C(Nc1ccc(C(=O)N2C[C@@H]3C[C@H](O)CN3c3ccccc32)cc1)c1ccccc1-c1ccccc1 [Example 7, (2S, 3aS)-2-Hydroxy-5-[4-[(2-Phenylbenzoyl) Amino]Benzoyl]-1,2,3,3a,4,5-Hexahydro-Pyrrolo[1,2-a]Quinoxaline] | 29.3 ml/kg/0-4 hr. | 33.8 ml/kg/0-4 hr.
Cl.O=C(Nc1ccc(C(=O)N2C[C@H]3C[C@@H](O)CN3Cc3ccccc32)cc1)c1ccccc1-c1ccccc1 [Example 45, (2R,11aR)-2-Hydroxy-10-[4-[(2-Phenylbenzoyl) Amino]Benzoyl]-1,2,3,10,11,11a-Hexahydro-5H-Pyrrolo[2,1-c][1,4]Benzodiazepine Hydrochloride] | 51.4 ml/kg/0-4 hr. | 93.9 ml/kg/0-4 hr.
CC(=O)O[C@H]1C[C@@H]2CN(C(=O)c3ccc(NC(=O)c4ccccc4-c4ccccc4)cc3)c3ccccc3CN2C1 [Example 46, (2S, 11aR)-2-Acetoxy-10-[4-[(2-Phenylbenzoyl) Amino]Benzoyl]-1,2,3,10,11,11a-Hexahydro-5H-Pyrrolo[2,1-c][1,4]Benzodiazepine] | 82.5 ml/kg/0-4 hr. | 118.8 ml/kg/0-4 hr.
O=C(Nc1ccc(C(=O)N2C[C@@H]3CCCN3c3ccccc32)cc1)c1ccccc1-c1ccccc1 [Example 1, (3aS)-5-[4-[(2-Phenylbenzoyl)Amino]Benzoyl]-1,2,3,3a,4,5-Hexahydro-Pyrrolo[1,2-a]Quinoxaline] | 33.1 ml/kg/0-4 hr. | 40.3 ml/kg/0-4 hr.
CN(C)C1CC2CCN(C(=O)c3ccc(NC(=O)c4ccccc4-c4ccccc4)cc3)c3ccccc3N2C1.Cl [Example 56, (2S, 3aR)-2-(N,N-dimethylamino)-6-[4-[(2-phenylbenzoyl)amino]benzoyl]-2,3,3a,4,5,6-hexahydro-1H-Pyrrolo[1,2-a][1,5]benzodiazepinehydrochloride] | 87.4 ml/kg/0-4 hr. | 116.4 ml/kg/0-4 hr.
CN(C)[C@H]1C[C@H]2CN(C(=O)c3ccc(NC(=O)c4ccccc4-c4ccccc4)cc3)c3ccccc3N2C1.Cl [Example 10, (2S, 3aS)-2-(N,N-Dimethylamino)-5-[4-[(2-Phenylbenzoyl) Amino]Benzoyl]-1,2,3,3a,4,5-Hexahydro-Pyrrolo[1,2-a]Quinoxaline Hydrochloride] | 22.2 ml/kg/0-4 hr. | 39.6 ml/kg/0-4 hr.
Cc1ccc(-c2ccccc2C(=O)Nc2ccc(C(=O)N3C[C@H]4CCCN4c4ccccc43)cc2)cc1 [Example 12, (3aR)-5-[4-[[2-(4-Tolyl) Benzoyl]Amino]Benzoyl]-1,2,3,3a,4,5-Hexahydro-Pyrrolo[1,2-a]Quinoxaline] | 66.0 ml/kg/0-4 hr. | 12.8 ml/kg/0-4 hr.
O=C(Nc1ccc(C(=O)N2C[C@@H]3C[C@@H](O)CN3c3ccccc32)cc1)c1ccccc1-c1ccccc1 [Example 3] | 29.5 ml/kg/0-4 hr. | 54.0 ml/kg/0-4 hr.
O=C(Nc1ccc(C(=O)N2C[C@H]3C[C@H](F)CN3c3ccccc32)cc1)c1ccccc1-c1ccccc1 [Example 23, (2S, 3aR)-2-Fluoro-5-[4-[(2-Phenylbenzoyl) Amino]Benzoyl]-1,2,3,3a,4,5-Hexahydro-Pyrrolo[1,2-a]Quinoxaline] | 27.2 ml/kg/0-4 hr. | 35.6 ml/kg/0-4 hr.
O=C(Nc1ccc(C(=O)N2CC[C@H]3CCCN3c3ccccc32)cc1)c1ccccc1-c1ccccc1 [Example 51, (3aR)-6-[4-[(2-Phenylbenzoyl) Amino]Benzoyl]-2,3,3a,4,5,6-Hexahydro-1H-Pyrrolo[1,2-a][1,5]Benzodiazepine] | 63.8 ml/kg/0-4 hr. | 21.7 ml/kg/0-4 hr.
Cc1ccccc1C(=O)Nc1ccc(C(=O)N2Cc3cccn3Cc3ccccc32)cc1 [Comp. Ex. 4, reference compound] | 34.8 ml/kg/0-4 hr. | 22.6 ml/kg/0-4 hr.

— US6225306A, “Biphenyl derivatives and drug composition” (Wakamoto Pharmaceutical Co., Ltd., priority 1997, dated 2001)
